The values below are quoted from earlier work in US20140322324A1, “Composition For The Treatment Of Bacterial Infections” (priority 2011, published 2014).

In this series the test system is Staphylococcus aureus (ATCC #14154 and #14775). Conditions: two strains of Staphylococcus aureus (ATCC #14154 and #14775); for the combination: concentration of each.

Regarding `CCCCCCCCCCCC(=O)OCC(O)CO` (stereo not shown) [monolaurin], the “bactericidal concentration in culture” value is listed as “mirrored origanum oil”.
